Laboratory results as given in ChEMBL document CHEMBL3390848, “Affinity selection and sequence-activity relationships of HIV-1 membrane fusion inhibitors directed at the drug-resistant variants” (Medchemcomm, 2010).
Residues, ends and D or L forms follow the SMILES beside them.

Columns and labels:
[1] = tested on: Human immunodeficiency virus 1; assay: Binding affinity to HIV1 His-tagged N-terminal heptad repeat of envelope glycoprotein gp41 assessed as recovery of N36-drug complex at 0.6 uM after 2 hrs by LC-MS analysis
[2] = tested on: Human immunodeficiency virus 1; assay: Binding affinity to HIV1 His-tagged N-terminal heptad repeat of envelope glycoprotein gp41 assessed as recovery of N36-drug complex at 6 uM after 2 hrs by LC-MS analysis
[3] = tested on: Human immunodeficiency virus 1; assay: Binding affinity to HIV1 His-tagged N-terminal heptad repeat of envelope glycoprotein gp41 assessed as recovery of N36-drug complex at 10 uM after 2 hrs by LC-MS analysis
[4] = tested on: Human immunodeficiency virus 1; assay: Antiviral activity against HIV1 NL4-3 harboring gp41 D36G mutant infected in human HeLa cells expressing CD4-LTR-beta-gal assessed as inhibition of viral replication after 48 hrs by MAGI assay; assay type: functional, organism-based
[5] = tested on: Human immunodeficiency virus 1; assay: Thermal stability of HIV1 envelope glycoprotein gp41 His-tagged N-terminal heptad repeat N36-drug complex assessed as thermal unfolding transition state by measuring molar ellipticity at 4 to 90 degC by circular dichroic spectra analysis
[6] = tested on: Human immunodeficiency virus 1; assay: Binding affinity to HIV1 His-tagged N-terminal heptad repeat of envelope glycoprotein gp41 assessed as recovery of N36-drug complex at 1 uM after 2 hrs by LC-MS analysis
[7] = tested on: Human immunodeficiency virus 1; assay: Binding affinity to HIV1 His-tagged N-terminal heptad repeat of envelope glycoprotein gp41 assessed as recovery of N36-drug complex after 2 hrs by LC-MS analysis; design: concentration or dose not given beside the values

SMILES	Activity [1] [%]	Activity [2] [%]	Activity [3] [%]	EC50 [4] [nM]	Tm [5] [°C]	Activity [6] [%]	Activity [7] [%]
CC[C@H](C)[C@H](NC(=O)[C@H](CC(C)C)NC(=O)[C@H](CCC(=O)O)NC(=O)[C@H](CCC(=O)O)NC(=O)[C@@H](NC(=O)[C@H](CCCCN)NC(=O)[C@H](CCCCN)NC(=O)[C@@H](NC(=O)[C@H](Cc1ccc(O)cc1)NC(=O)[C@H](CCC(=O)O)NC(=O)[C@H](CCC(=O)O)NC(=O)[C@@H](NC(=O)[C@H](CCCCN)NC(=O)[C@H](CCCCN)NC(=O)[C@H](CC(=O)O)NC(=O)[C@H](Cc1c[nH]c2ccccc12)NC(=O)[C@H](CCC(=O)O)NC(=O)[C@H](CCC(=O)O)NC(=O)[C@H](Cc1c[nH]c2ccccc12)NC(C)=O)[C@@H](C)CC)[C@@H](C)O)[C@@H](C)CC)C(=O)N[C@@H](CCCCN)C(=O)N[C@@H](CCCCN)C(=O)NCC(=O)N[C@@H](CCC(=O)O)C(=O)N[C@@H](CCC(=O)O)C(=O)N[C@@H](CCC(N)=O)C(=O)N[C@@H](CCC(N)=O)C(=O)N[C@@H](CCCCN)C(=O)N[C@@H](CCCCN)C(=O)N[C@@H](CC(N)=O)C(=O)N[C@@H](CCC(=O)O)C(=O)N[C@@H](CCC(=O)O)C(=O)N[C@@H](CCC(=O)O)C(=O)N[C@@H](CC(C)C)C(=O)N[C@@H](CCCCN)C(=O)N[C@@H](CCCCN)C(N)=O (Ac-WEEWDKKIEEYTKKIEELIKKGEEQQKKNEEELKK-NH2)	5.9	14.4	13.8	1.9	79.1	11.6	–
CC[C@H](C)[C@H](NC(=O)[C@H](CC(C)C)NC(=O)[C@H](CCC(=O)O)NC(=O)[C@H](CCC(=O)O)NC(=O)[C@@H](NC(=O)[C@H](CCCCN)NC(=O)[C@H](CCCCN)NC(=O)[C@@H](NC(=O)[C@H](Cc1ccc(O)cc1)NC(=O)[C@H](CCC(=O)O)NC(=O)[C@H](CCC(=O)O)NC(=O)[C@@H](NC(=O)[C@H](CCCCN)NC(=O)[C@H](CCCCN)NC(=O)[C@H](CC(=O)O)NC(=O)[C@H](Cc1c[nH]c2ccccc12)NC(=O)[C@H](CCC(=O)O)NC(=O)[C@H](CCC(=O)O)NC(=O)[C@H](Cc1c[nH]c2ccccc12)NC(C)=O)[C@@H](C)CC)[C@@H](C)O)[C@@H](C)CC)C(=O)N[C@@H](CCCCN)C(=O)N[C@@H](CCCCN)C(=O)N[C@@H](CCCCN)C(=O)N[C@@H](CCC(=O)O)C(=O)N[C@@H](CCC(=O)O)C(=O)N[C@@H](CCC(N)=O)C(=O)N[C@@H](CCC(N)=O)C(=O)N[C@@H](CCCCN)C(=O)N[C@@H](CCCCN)C(=O)N[C@@H](CC(N)=O)C(=O)N[C@@H](CCC(=O)O)C(=O)N[C@@H](CCC(=O)O)C(=O)N[C@@H](CCC(=O)O)C(=O)N[C@@H](CC(C)C)C(=O)N[C@@H](CCCCN)C(=O)N[C@@H](CCCCN)C(N)=O (Ac-WEEWDKKIEEYTKKIEELIKKKEEQQKKNEEELKK-NH2)	3.6	0.1	0.2	8.2	53.5	0	–
CC[C@H](C)[C@H](NC(=O)[C@H](CC(C)C)NC(=O)[C@H](CCC(=O)O)NC(=O)[C@H](CCC(=O)O)NC(=O)[C@@H](NC(=O)[C@H](CCCCN)NC(=O)[C@H](CCCCN)NC(=O)[C@@H](NC(=O)[C@H](Cc1ccc(O)cc1)NC(=O)[C@H](CCC(=O)O)NC(=O)[C@H](CCC(=O)O)NC(=O)[C@@H](NC(=O)[C@H](CCCCN)NC(=O)[C@H](CCCCN)NC(=O)[C@H](CC(=O)O)NC(=O)[C@H](Cc1c[nH]c2ccccc12)NC(=O)[C@H](CCC(=O)O)NC(=O)[C@H](CCC(=O)O)NC(=O)[C@H](Cc1c[nH]c2ccccc12)NC(C)=O)[C@@H](C)CC)[C@@H](C)O)[C@@H](C)CC)C(=O)N[C@@H](CCCCN)C(=O)N[C@@H](CCCCN)C(=O)N[C@@H](CCC(=O)O)C(=O)N[C@@H](CCC(=O)O)C(=O)N[C@@H](CCC(=O)O)C(=O)N[C@@H](CCC(N)=O)C(=O)N[C@@H](CCC(N)=O)C(=O)N[C@@H](CCCCN)C(=O)N[C@@H](CCCCN)C(=O)N[C@@H](CC(N)=O)C(=O)N[C@@H](CCC(=O)O)C(=O)N[C@@H](CCC(=O)O)C(=O)N[C@@H](CCC(=O)O)C(=O)N[C@@H](CC(C)C)C(=O)N[C@@H](CCCCN)C(=O)N[C@@H](CCCCN)C(N)=O (Ac-WEEWDKKIEEYTKKIEELIKKEEEQQKKNEEELKK-NH2)	5.1	1	1.3	15	66.2	1.8	–
CC[C@H](C)[C@H](NC(=O)[C@H](CC(C)C)NC(=O)[C@H](CCC(=O)O)NC(=O)[C@H](CCC(=O)O)NC(=O)[C@@H](NC(=O)[C@H](CCCCN)NC(=O)[C@H](CCCCN)NC(=O)[C@@H](NC(=O)[C@H](Cc1ccc(O)cc1)NC(=O)[C@H](CCC(=O)O)NC(=O)[C@H](CCC(=O)O)NC(=O)[C@@H](NC(=O)[C@H](CCCCN)NC(=O)[C@H](CCCCN)NC(=O)[C@H](CC(=O)O)NC(=O)[C@H](Cc1c[nH]c2ccccc12)NC(=O)[C@H](CCC(=O)O)NC(=O)[C@H](CCC(=O)O)NC(=O)[C@H](Cc1c[nH]c2ccccc12)NC(C)=O)[C@@H](C)CC)[C@@H](C)O)[C@@H](C)CC)C(=O)N[C@@H](CCCCN)C(=O)N[C@@H](CCCCN)C(=O)N[C@@H](CO)C(=O)N[C@@H](CCC(=O)O)C(=O)N[C@@H](CCC(=O)O)C(=O)N[C@@H](CC(C)C)C(=O)N[C@@H](CCC(N)=O)C(=O)N[C@@H](CCCCN)C(=O)N[C@@H](CCCCN)C(=O)N[C@@H](CC(N)=O)C(=O)N[C@@H](CCC(=O)O)C(=O)N[C@@H](CCC(=O)O)C(=O)N[C@@H](CCC(=O)O)C(=O)N[C@@H](CC(C)C)C(=O)N[C@@H](CCCCN)C(=O)N[C@@H](CCCCN)C(N)=O (Ac-WEEWDKKIEEYTKKIEELIKKSEELQKKNEEELKK-NH2)	–	–	–	2.7	83.8	–	8.2
CC[C@H](C)[C@H](NC(=O)[C@H](CC(C)C)NC(=O)[C@H](CCC(=O)O)NC(=O)[C@H](CCC(=O)O)NC(=O)[C@@H](NC(=O)[C@H](CCCCN)NC(=O)[C@H](CCCCN)NC(=O)[C@@H](NC(=O)[C@H](Cc1ccc(O)cc1)NC(=O)[C@H](CCC(=O)O)NC(=O)[C@H](CCC(=O)O)NC(=O)[C@@H](NC(=O)[C@H](CCCCN)NC(=O)[C@H](CCCCN)NC(=O)[C@H](CC(=O)O)NC(=O)[C@H](Cc1c[nH]c2ccccc12)NC(=O)[C@H](CCC(=O)O)NC(=O)[C@H](CCC(=O)O)NC(=O)[C@H](Cc1c[nH]c2ccccc12)NC(C)=O)[C@@H](C)CC)[C@@H](C)O)[C@@H](C)CC)C(=O)N[C@@H](CCCCN)C(=O)N[C@@H](CCCCN)C(=O)N[C@@H](CO)C(=O)N[C@@H](CCC(=O)O)C(=O)N[C@@H](CCC(=O)O)C(=O)N[C@@H](C)C(=O)N[C@@H](CCC(N)=O)C(=O)N[C@@H](CCCCN)C(=O)N[C@@H](CCCCN)C(=O)N[C@@H](CC(N)=O)C(=O)N[C@@H](CCC(=O)O)C(=O)N[C@@H](CCC(=O)O)C(=O)N[C@@H](CCC(=O)O)C(=O)N[C@@H](CC(C)C)C(=O)N[C@@H](CCCCN)C(=O)N[C@@H](CCCCN)C(N)=O (Ac-WEEWDKKIEEYTKKIEELIKKSEEAQKKNEEELKK-NH2)	–	–	–	1.6	76.1	–	6.6
CC[C@H](C)[C@H](NC(=O)[C@H](CC(C)C)NC(=O)[C@H](CCC(=O)O)NC(=O)[C@H](CCC(=O)O)NC(=O)[C@@H](NC(=O)[C@H](CCCCN)NC(=O)[C@H](CCCCN)NC(=O)[C@@H](NC(=O)[C@H](Cc1ccc(O)cc1)NC(=O)[C@H](CCC(=O)O)NC(=O)[C@H](CCC(=O)O)NC(=O)[C@@H](NC(=O)[C@H](CCCCN)NC(=O)[C@H](CCCCN)NC(=O)[C@H](CC(=O)O)NC(=O)[C@H](Cc1c[nH]c2ccccc12)NC(=O)[C@H](CCC(=O)O)NC(=O)[C@H](CCC(=O)O)NC(=O)[C@H](Cc1c[nH]c2ccccc12)NC(C)=O)[C@@H](C)CC)[C@@H](C)O)[C@@H](C)CC)C(=O)N[C@@H](CCCCN)C(=O)N[C@@H](CCCCN)C(=O)N[C@@H](CO)C(=O)N[C@@H](CCC(=O)O)C(=O)N[C@@H](CCC(=O)O)C(=O)N[C@H](C(=O)N[C@@H](CCC(N)=O)C(=O)N[C@@H](CCCCN)C(=O)N[C@@H](CCCCN)C(=O)N[C@@H](CC(N)=O)C(=O)N[C@@H](CCC(=O)O)C(=O)N[C@@H](CCC(=O)O)C(=O)N[C@@H](CCC(=O)O)C(=O)N[C@@H](CC(C)C)C(=O)N[C@@H](CCCCN)C(=O)N[C@@H](CCCCN)C(N)=O)[C@@H](C)O (Ac-WEEWDKKIEEYTKKIEELIKKSEETQKKNEEELKK-NH2)	–	–	–	3.2	76.7	–	7.3
CC[C@H](C)[C@H](NC(=O)[C@H](CC(C)C)NC(=O)[C@H](CCC(=O)O)NC(=O)[C@H](CCC(=O)O)NC(=O)[C@@H](NC(=O)[C@H](CCCCN)NC(=O)[C@H](CCCCN)NC(=O)[C@@H](NC(=O)[C@H](Cc1ccc(O)cc1)NC(=O)[C@H](CCC(=O)O)NC(=O)[C@H](CCC(=O)O)NC(=O)[C@@H](NC(=O)[C@H](CCCCN)NC(=O)[C@H](CCCCN)NC(=O)[C@H](CC(=O)O)NC(=O)[C@H](Cc1c[nH]c2ccccc12)NC(=O)[C@H](CCC(=O)O)NC(=O)[C@H](CCC(=O)O)NC(=O)[C@H](Cc1c[nH]c2ccccc12)NC(C)=O)[C@@H](C)CC)[C@@H](C)O)[C@@H](C)CC)C(=O)N[C@@H](CCCCN)C(=O)N[C@@H](CCCCN)C(=O)N[C@@H](CO)C(=O)N[C@@H](CCC(=O)O)C(=O)N[C@@H](CCC(=O)O)C(=O)N[C@@H](CCSC)C(=O)N[C@@H](CCC(N)=O)C(=O)N[C@@H](CCCCN)C(=O)N[C@@H](CCCCN)C(=O)N[C@@H](CC(N)=O)C(=O)N[C@@H](CCC(=O)O)C(=O)N[C@@H](CCC(=O)O)C(=O)N[C@@H](CCC(=O)O)C(=O)N[C@@H](CC(C)C)C(=O)N[C@@H](CCCCN)C(=O)N[C@@H](CCCCN)C(N)=O (Ac-WEEWDKKIEEYTKKIEELIKKSEEMQKKNEEELKK-NH2)	–	–	–	2	80.2	–	6
